Results taken from patent publication US20050261246A1, “Methods for treating inflammatory and autoimmune diseases” (priority 2004, published 2005).

Tests used:
arthritic rats = settings: cited from earlier work
[1] = tested on: TNF-α production by macrophages; settings: LPS- or bacteria-induced; cited from earlier work
[2] = healthy mice; cited from earlier work
[3] = tested on: VEGF production in human cancer cell lines; assay: VEGF production in human cancer cell lines (ELISA); type: cell-based
Procedure: (A) Effect of SNS on VEGF production was analyzed in two cancer cell lines (both supernatants and cell lysates). (B) The supernatant from control and drug treated H460 cells was analyzed for the level of VEGF (pg/ml). C. […] Statistical analyses were performed using one-way ANOVA.
As discussed above, SNS and pancratastatin were originally synthesized as an anti-cancer agent. The inventors also examined the effect of SNS and pancratastatin on the production of VEGF in human cancer cell lines (FIG. 2). […] This analysis had been performed at least 3-5 times depending on the cell lines and drug used, with statistical analysis performed using one-way ANOVA.

Japanese encephalitis = settings: flavivirus infection; cited from earlier work
[4] = tested on: Encephalitozoan intestinalis; settings: cited from earlier work
tumor growth = settings: cited from earlier work

| SMILES | footpad volumes, severe chronic inflammation (arthritic rats; day 21 post-CFA challenge, treated vs untreated arthritic rats) | inflammation, acute phase (arthritic rats; given from the time of CFA challenge, day 14 post-CFA challenge) | TNF-α production by macrophages [1] | growth rate [2] | VEGF production, narcistatin compared with pancratistatin [3] | effect on VEGF production/secretion ([3]; human cancer cell lines, ELISA) | survival rate (Japanese encephalitis) | activity against the parasite [4] | potency in inhibiting tumor growth relative to SNS (tumor growth) |
| --- | --- | --- | --- | --- | --- | --- | --- | --- | --- |
| O=C1N[C@@H]2C(=C[C@H](O)[C@@H](O)[C@H]2O)c2cc3c(c(O)c21)OCO3 [narciclasine] | no differences in their footpad volumes | able to inhibit inflammation during the acute inflammatory phase | inhibits lipopolysaccharide (LPS)- or bacteria-induced production of TNF-α by macrophages | inhibits the growth rate of healthy mice |  |  |  |  |  |
| O=C1N[C@H]2[C@H](O)[C@H](O)[C@@H](O)[C@H](O)[C@@H]2c2cc3c(c(O)c21)OCO3 [pancratistatin] |  |  |  |  | comparable inhibition on VEGF production | inhibitory effect | up to 100% | activity against the parasite Encephalitozoan intestinalis | more potent than SNS in inhibiting tumor growth |
